In the test the target is T1, 5-hydroxytryptamine receptor 1A (Rattus norvegicus, UniProt P19327).
T1 sequence (P19327 whole entry): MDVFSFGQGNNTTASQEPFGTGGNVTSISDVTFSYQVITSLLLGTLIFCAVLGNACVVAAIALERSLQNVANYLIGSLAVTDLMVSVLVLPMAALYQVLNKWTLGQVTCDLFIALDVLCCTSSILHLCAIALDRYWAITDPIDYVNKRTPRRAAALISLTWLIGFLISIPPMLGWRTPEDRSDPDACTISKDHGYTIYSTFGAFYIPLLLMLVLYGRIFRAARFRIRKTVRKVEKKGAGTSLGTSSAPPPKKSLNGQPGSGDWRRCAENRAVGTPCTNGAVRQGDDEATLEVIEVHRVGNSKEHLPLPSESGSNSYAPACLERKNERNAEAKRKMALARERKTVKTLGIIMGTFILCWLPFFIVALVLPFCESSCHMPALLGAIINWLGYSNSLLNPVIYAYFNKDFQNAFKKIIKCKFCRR
Briefly: Binding affinity for rat cortex 5-hydroxytryptamine 1A receptor, by displacement of 0.2 nM [3H]8-OH-DPAT radioligand.
As to `Cc1cccc(C(=O)N2CCC(CNCc3cccc(-n4cccn4)n3)CC2)c1`, the affinity corresponds to a Ki of 3.47 nM.

The compound `O=C(c1ccc(Cl)cc1)N1CCC(CNCc2cccc(-n3cccn3)n2)CC1` had a Ki of 49 nM.

For `O=C(c1ccc(Cl)c(Cl)c1)N1CCC(CNCc2cccc(Cl)n2)CC1`, the inhibitory constant (Ki) was 4.57 nM.

In the case of `N#Cc1cccc(C(=O)N2CCC(CNCc3cccc(-n4cccn4)n3)CC2)c1`, affinity was put at a Ki of 17.8 nM.

The compound `N#Cc1cccc(CNCC2CCN(C(=O)c3ccc(Cl)c(Cl)c3)CC2)n1` had a Ki of 50.1 nM.

`O=C(c1ccc(Cl)c(Cl)c1)N1CCC(CNCc2cccc(F)n2)CC1` gave a Ki of 8.91 nM.

`O=C(c1ccccc1)N1CCC(CNCc2cccc(-n3cccn3)n2)CC1` gave a Ki of 33.1 nM.

On to `O=C(c1ccc(Cl)c(Cl)c1)N1CCC(CNCc2cccc(-n3ccnc3)n2)CC1`, for which the Ki is 7.41 nM.

As to `O=C(c1ccc(Cl)c(Cl)c1)N1CCC(CNCc2cccc(N3CCCC3)n2)CC1`, the Ki is 1.58 nM.

Compound `COc1cccc(CNCC2CCN(C(=O)c3ccc(Cl)c(Cl)c3)CC2)n1` had an inhibition constant Ki of 3.47 nM.

The compound `CC(C)c1cccc(CNCC2CCN(C(=O)c3ccc(Cl)c(Cl)c3)CC2)n1` showed an inhibition constant Ki of 0.631 nM.

In turn, `Cc1cccc(CNCC2CCN(C(=O)c3ccc(Cl)c(Cl)c3)CC2)n1` gave a Ki of 4.07 nM.

For `O=C(c1ccc(Cl)c(Cl)c1)N1CCC(CNCc2cc(-n3cccn3)ccn2)CC1`, the Ki is 646 nM.

The compound `O=C(c1ccc(Cl)c(Cl)c1)N1CCC(CNCCc2cccc(-n3cccn3)n2)CC1` gave a Ki of 3.55 nM.

`CCOc1cccc(C(=O)N2CCC(CNCc3cccc(-n4cccn4)n3)CC2)c1`: the Ki is 10.7 nM.

Regarding `O=C(c1ccccc1Cl)N1CCC(CNCc2cccc(-n3cccn3)n2)CC1`, the inhibitory constant (Ki) was 132 nM.

The compound `O=S(=O)(c1ccc(Cl)c(Cl)c1)N1CCC(CNCc2cccc(-n3cccn3)n2)CC1` showed a Ki of 200 nM.

Turning to `Clc1ccc(CN2CCC(CNCc3cccc(-n4cccn4)n3)CC2)cc1Cl`, the Ki was 17.8 nM.

Compound `O=C(c1ccc(F)c(Cl)c1)N1CCC(CNCc2cccc(-n3cccn3)n2)CC1` had a Ki of 1.55 nM.

With `NC(=O)c1cccc(CNCC2CCN(C(=O)c3ccc(Cl)c(Cl)c3)CC2)n1`, affinity was put at a Ki of 46.8 nM.

In the case of `O=C(c1ccc(Cl)c(Cl)c1)N1CCC(CNCCc2ccncc2)CC1`, the Ki is greater than 1000 nM.

`O=C(NCC#CCNCc1cccc(-n2cccn2)n1)c1ccc(Cl)c(Cl)c1` had a Ki of 245 nM.

On to `CN(CCCCNCc1cccc(-n2cccn2)n1)C(=O)c1ccccc1`, for which affinity was put at a Ki of 170 nM.

The compound `Cn1c(=O)cnn(CCCCNCc2cccc(-n3cccn3)n2)c1=O` gave an inhibitory constant (Ki) of 110 nM.

As to `CCCN(C)c1cccc(CNCC2CCN(C(=O)c3ccc(Cl)c(Cl)c3)CC2)n1`, the Ki is 11.7 nM.

`CCCN(CCC)Cc1cccc(-n2cccn2)n1` had a Ki greater than 10000 nM.

The compound `CCCCOc1cccc(CNCC2CCN(C(=O)c3ccc(Cl)c(Cl)c3)CC2)n1` gave a Ki of 18.6 nM.

As to `O=C(C1CCCCC1)N1CCC(CNCc2cccc(-n3cccn3)n2)CC1`, the Ki was 29.5 nM.

As to `COc1ccc2[nH]cc(CCNCc3cccc(-n4cccn4)n3)c2c1`, the affinity corresponds to a Ki of 661 nM.

`O=C(c1ccc(Cl)c(Cl)c1)N1CCC(CNCc2cccc(-n3cccc3)n2)CC1` gave a Ki of 4.27 nM.

In turn, `O=C(c1cccc(Cl)c1)N1CCC(CNCc2cccc(-n3cccn3)n2)CC1` had a Ki of 2.29 nM.

For `CN(C)c1cccc(CNCC2CCN(C(=O)c3ccc(Cl)c(Cl)c3)CC2)c1`, affinity was put at a Ki of 75.9 nM.

As to `COC(=O)c1ccc(C(=O)N2CCC(CNCc3cccc(-n4cccn4)n3)CC2)cc1Cl`, the Ki is 166 nM.

In the case of `O=C(c1ccc(Cl)c(Cl)c1)N1CCC(CNCc2cccc(F)c2)CC1`, the Ki is 14.8 nM.

In the case of `O=C(c1ccc(Cl)c(Cl)c1)N1CCC(CNCc2cccc(-n3cccc3)c2)CC1`, the Ki was 295 nM.

`Cc1cccc(C(=O)NCCCCNCc2cccc(-n3cccn3)n2)c1`: the Ki is 14.1 nM.

The compound `O=C(c1cccc(C(F)(F)F)c1)N1CCC(CNCc2cccc(-n3cccn3)n2)CC1` gave a Ki of 3.55 nM.

With `O=C(c1ccc(Cl)c(Cl)c1)N1CCC(CNCc2cccc(-c3ncc[nH]3)n2)CC1`, the Ki was 2.69 nM.

In turn, `O=C(c1ccc(Cl)c(Cl)c1)N1CCC(CNCc2cccc(-n3cccn3)n2)CC1` showed a Ki of 1.66 nM.

Compound `O=C(c1ccc(Cl)c(Cl)c1)N1CCC(CNCc2cccc(-c3cnco3)n2)CC1` showed a Ki of 0.933 nM.

Compound `O=C(c1ccc(Cl)c(Cl)c1)N1CCC(CNCc2cccc(N3CCC3)n2)CC1` showed a Ki of 0.372 nM.

In the case of `O=C(c1cc(Cl)cc(Cl)c1)N1CCC(CNCc2cccc(-n3cccn3)n2)CC1`, affinity was put at a Ki of 26.3 nM.

`O=C(c1ccc(Cl)c(Cl)c1)N1CCC(CNCCc2cccc(F)n2)CC1`: the inhibition constant (Ki) is 3.16 nM.

Compound `O=C(c1ccc(Cl)c(Cl)c1)N1CCC(CNCCCc2ccccn2)CC1` gave a Ki of 42.7 nM.

On to `O=C(N1CCC(CNCc2cccc(-n3cccn3)n2)CC1)C12C[C@H]3C[C@@H](C1)C[C@@H](C2)C3`, for which the affinity corresponds to a Ki of 13.2 nM.

As to `O=C(c1ccc(Cl)c(Cl)c1)N1CCC(CNCCc2ccccn2)CC1`, the Ki was 1.2 nM.

`O=C(NCCNCc1cccc(-n2cccn2)n1)C12C[C@H]3C[C@@H](C1)C[C@@H](C2)C3` gave an inhibition constant Ki of 27.5 nM.

In turn, `COc1ccc(C(=O)N2CCC(CNCc3cccc(-n4cccn4)n3)CC2)cc1Cl` showed a Ki of 9.12 nM.

As to `O=C(c1ccc(Cl)c(Cl)c1)N1CCC(CNCc2cc(Cl)ccn2)CC1`, the Ki was 9.12 nM.

For the compound `Cc1ccc(C(=O)N2CCC(CNCc3cccc(-n4cccn4)n3)CC2)cc1Cl`, the Ki is 1.41 nM.

On to `O=C(c1ccc(Cl)c(Cl)c1)N1CCC(CNCc2cccc(-c3ccccc3)n2)CC1`, for which the Ki is 7.41 nM.

For `O=C(c1ccc(Cl)c(Cl)c1)N1CCCC(CNCc2cccc(-n3cccn3)n2)C1` (configuration not stated), the Ki is 407 nM.

In the case of `O=C(c1cccc(F)c1)N1CCC(CNCc2cccc(-n3cccn3)n2)CC1`, the Ki is 13.5 nM.

`CSc1cccc(CNCC2CCN(C(=O)c3ccc(Cl)c(Cl)c3)CC2)n1` gave a Ki of 2.57 nM.

With `C[S+]([O-])c1cccc(CNCC2CCN(C(=O)c3ccc(Cl)c(Cl)c3)CC2)n1` (configuration not stated), the Ki is 46.8 nM.

In turn, `O=C(c1ccc(Cl)c(Cl)c1)N1CCC(CNCc2cccc(-c3ccc[nH]3)n2)CC1` had a Ki of 6.03 nM.

In turn, `O=C(c1ccc(Cl)c(Cl)c1)N1CCC(CNCc2cccc(-c3ccco3)n2)CC1` showed a Ki of 0.724 nM.

As to `Fc1ccc(C(CCCNCc2cccc(-n3cccn3)n2)c2ccc(F)cc2)cc1`, affinity was put at a Ki of 151 nM.

As for `O=C(c1cccc(Cl)c1Cl)N1CCC(CNCc2cccc(-n3cccn3)n2)CC1`, the inhibition constant (Ki) was 100 nM.

`O=C(c1ccc(Cl)c(Cl)c1)N1CCC(CNCc2cccc(-c3cccs3)n2)CC1` had a Ki of 1.38 nM.

Compound `CN(C)c1cccc(CNCC2CCN(C(=O)c3ccc(Cl)c(Cl)c3)CC2)n1` had an inhibition constant (Ki) of 1.41 nM.

Take `O=C(c1ccc(Cl)c(Cl)c1)N1CCC(CNCCc2cccnc2)CC1`: affinity was put at a Ki of 933 nM.

Regarding `O=C(c1ccc(Cl)c(Cl)c1)N1CCC(CNCc2cccnc2)CC1`, the Ki is 417 nM.

With `CNc1cccc(CNCC2CCN(C(=O)c3ccc(Cl)c(Cl)c3)CC2)n1`, the Ki was 1.74 nM.

For the compound `O=C(c1ccc(Cl)c(Cl)c1)N1CCC(CNCc2cccc(-c3cc[nH]n3)n2)CC1`, the inhibitory constant (Ki) was 0.537 nM.

Take `O=C(c1ccc(Cl)c(Cl)c1)N1CCC(CNCc2cccc(-c3nccs3)n2)CC1`: the Ki was 0.347 nM.

`O=C(c1ccc(Cl)c(Cl)c1)N1CCC(CNCc2ccccn2)CC1`: the Ki is 26.3 nM.

The record behind these values is ChEMBL document CHEMBL1131424 (J Med Chem, 1998).
